The text below walks through data of ChEMBL document CHEMBL3832542, “DailyMed|setid=00f30ef0-e65c-4b41-ad1b-afaab9bcfc7d | CLONIDINE- clonidine patch, extended release|Lake Erie Medical DBA Quality Care Products LLC”.

Data set [1] in a line: Pharmacokinetic parameters for Clonidine evaluated following oral or intravenous administration of Clonidine to subjects. As to conditions: human, in vivo.
The nature of data set [2]: Steady-state pharmacokinetic parameters for Clonidine evaluated following transdermal administration of 0.1, 0,2 and 0.3 mg doses of Clonidine to the upper outer arm for 7 days. As to conditions: human, in vivo, topical or ocular.

As a reminder, the half-life is how long it takes for the measured level to halve. The low end stands for rapid decline, the high end for slow decline. Broadly, the bioavailability is dose-corrected exposure relative to a reference, in per cent. Read a high bioavailability as good availability. In the case of `Clc1cccc(Cl)c1N=C1NCCN1` [CLONIDINE], in data set [1], the CL renal came to 102 mL/min, the Vd worked out at 197 L, the clearance worked out at 177 mL/min and the half-life is 720 to 960 min. Further, in data set [2], the bioavailability at 168 h is 60% and the half-life at 168 h is 1440 min.
